Source: article PMC8286840, “Identifying SARS-CoV-2 antiviral compounds by screening for small molecule inhibitors of Nsp3 papain-like protease” (Biochemical Journal, 2021)
Counter-ions that a name gives are not always drawn. Like-named read-outs stand apart in the source and are kept apart here.

Assays:
[1] = biological target: T1, SARS-CoV-2 PLpro (nsp3 1564–1878) (Severe acute respiratory syndrome coronavirus 2, UniProt P0DTD1); assay: biochemical; design: FRET-quenched peptide (Pro3) cleavage by PLpro, 10 min pre-incubation, slope over 20 min, normalised to no-compound control; details: low concentration screen, read-out: % of control remaining
[2] = biological target: T1, SARS-CoV-2 PLpro (nsp3 1564–1878); assay: biochemical; design: FRET-quenched peptide (Pro3) cleavage by PLpro, 10 min pre-incubation, slope over 20 min, normalised to no-compound control; details: high concentration screen, read-out: % of control remaining

C[N+](C)(C)CCCCCCCCCC[N+](C)(C)C [Decamethonium]
remaining activity at 1.25 µM ([1]; Well no.=1554): 97.2% | remaining activity at 3.75 µM ([2]; Well no.=1554): 100%

O=C(O)CCCCCCCCC(=O)O [Decanedioic acid]
remaining activity at 1.25 µM ([1]; Well no.=6453): 93% | remaining activity at 3.75 µM ([2]; Well no.=6453): 95.8%

CCCCCCCCCC(=O)O [Decanoic acid]
remaining activity at 1.25 µM ([1]; Well no.=4540): 93.6% | remaining activity at 1.25 µM ([1]; Well no.=6973): 105% | remaining activity at 3.75 µM ([2]; Well no.=4540): 95.8% | remaining activity at 3.75 µM ([2]; Well no.=6973): 107%

Nc1ncn([C@H]2C[C@H](O)[C@@H](CO)O2)c(=O)n1 [Decitabine]
remaining activity at 1.25 µM ([1]; Well no.=5103): 102% | remaining activity at 3.75 µM ([2]; Well no.=5103): 99.8%

OCCOCCN1CCN(C(c2ccccc2)c2ccccc2)CC1 [Decloxizine (dihydrochloride)]
remaining activity at 1.25 µM ([1]; Well no.=8189): 102% | remaining activity at 3.75 µM ([2]; Well no.=8189): 103%

C=C1O[C@@](CO)(n2cnc3c(N)ncnc32)[C@H](O)[C@@H]1O [Decoyinine]
remaining activity at 1.25 µM ([1]; Well no.=3223): 100% | remaining activity at 3.75 µM ([2]; Well no.=3223): 104%

CCCCCCCCCCC1=C(C)C(=O)C(OC)=C(OC)C1=O [Decylubiquinone]
remaining activity at 1.25 µM ([1]; Well no.=3245): 100% | remaining activity at 3.75 µM ([2]; Well no.=3245): 99.1%

O=C(O)c1ccc(-n2nc(-c3ccccc3O)nc2-c2ccccc2O)cc1 [Deferasirox]
remaining activity at 1.25 µM ([1]; Well no.=8190): 107% | remaining activity at 3.75 µM ([2]; Well no.=8190): 100%

Cc1c(O)c(=O)ccn1C [Deferiprone]
remaining activity at 1.25 µM ([1]; Well no.=5130): 97.3% | remaining activity at 3.75 µM ([2]; Well no.=5130): 98.7%

CC(=O)OCC(=O)[C@@]12N=C(C)O[C@@H]1C[C@H]1[C@@H]3CCC4=CC(=O)C=C[C@]4(C)[C@H]3[C@@H](O)C[C@@]12C [Deflazacort]
remaining activity at 1.25 µM ([1]; Well no.=5566): 103% | remaining activity at 1.25 µM ([1]; Well no.=7613): 102% | remaining activity at 3.75 µM ([2]; Well no.=5566): 104% | remaining activity at 3.75 µM ([2]; Well no.=7613): 97.5%

C[C@H](CCC(=O)O)[C@H]1CC[C@H]2[C@@H]3C(=O)C[C@@H]4CC(=O)CC[C@]4(C)[C@H]3CC(=O)[C@]12C [Dehydrocholic acid]
remaining activity at 1.25 µM ([1]; Well no.=8300): 100% | remaining activity at 3.75 µM ([2]; Well no.=8300): 99%

C=C1CC[C@H]2C(=C)CC[C@H]3C(=C)C(=O)O[C@@H]3[C@@H]12 [Dehydrocostus lactone]
remaining activity at 1.25 µM ([1]; Well no.=3206): 101% | remaining activity at 3.75 µM ([2]; Well no.=3206): 100%

C[C@]12CC[C@H](O)CC1=CC[C@@H]1[C@@H]2CC[C@]2(C)C(=O)CC[C@@H]12 [Dehydroepiandrosterone]
remaining activity at 1.25 µM ([1]; Well no.=1972): 94.1% | remaining activity at 3.75 µM ([2]; Well no.=1972): 98.4%

CC(C)Nc1cccnc1N1CCN(C(=O)c2cc3cc(NS(C)(=O)=O)ccc3[nH]2)CC1 [Delavirdine mesylate]
remaining activity at 1.25 µM ([1]; Well no.=1676): 108% | remaining activity at 3.75 µM ([2]; Well no.=1676): 101%

CCN1C[C@]2(COC)CC[C@H](OC)[C@@]34C1[C@]1(OCO[C@@]15C[C@H](OC)[C@H]1C[C@@H]3[C@@H]5[C@H]1OC)[C@@H](O)[C@H]24 [Delcorine]
remaining activity at 1.25 µM ([1]; Well no.=3109): 98.2% | remaining activity at 3.75 µM ([2]; Well no.=3109): 101%

CCN1C[C@]2(C)CC[C@H](OC)[C@@]34C1[C@]1(OCO[C@@]15C[C@H](OC)[C@H]1C[C@]3(O)[C@@H]5[C@H]1OC)[C@@H](OC(C)=O)[C@H]24 [Deltaline]
remaining activity at 1.25 µM ([1]; Well no.=3111): 101% | remaining activity at 3.75 µM ([2]; Well no.=3111): 103%

c1ccc(Cn2c(-c3ccc(OC[C@H](C4CCNCC4)n4c(-c5ccccc5)nc5ccccc54)cc3)nc3ccccc32)cc1 [Deltarasin]
remaining activity at 1.25 µM ([1]; Well no.=8476): 95.2% | remaining activity at 3.75 µM ([2]; Well no.=8476): 92.7%

CN(C)[C@@H]1C(O)=C(C(N)=O)C(=O)[C@@]2(O)C(O)=C3C(=O)c4c(O)ccc(Cl)c4[C@@H](O)[C@H]3C[C@@H]12 [Demeclocycline hydrochloride]
remaining activity at 1.25 µM ([1]; Well no.=484): 99.1% | remaining activity at 3.75 µM ([2]; Well no.=484): 96.9%

COc1cc(/C=C/C(O)=C/C(=O)/C=C/c2ccc(O)cc2)ccc1O [Demethoxycurcumin]
remaining activity at 1.25 µM ([1]; Well no.=6262): 103% | remaining activity at 3.75 µM ([2]; Well no.=6262): 98.7%

C[C@H]1CC[C@@H]2[C@@H](C)[C@H]3[C@H](C[C@H]4[C@@H]5CC[C@H]6C[C@@H](O)CC[C@]6(C)[C@H]5CC[C@]34C)N2C1 [Demissidine]
remaining activity at 1.25 µM ([1]; Well no.=3202): 104% | remaining activity at 3.75 µM ([2]; Well no.=3202): 107%

CCCCn1c(=O)c2c(ncn2CC(C)=O)n(CCCC)c1=O [Denbufylline]
remaining activity at 1.25 µM ([1]; Well no.=1765): 102% | remaining activity at 3.75 µM ([2]; Well no.=1765): 99.8%

Oc1ccc(OC2CCCCO2)cc1 (stereo not shown) [Deoxyarbutin]
remaining activity at 1.25 µM ([1]; Well no.=5166): 103% | remaining activity at 3.75 µM ([2]; Well no.=5166): 101%

C[C@H](CCC(=O)O)[C@H]1CC[C@H]2[C@@H]3CC[C@@H]4C[C@H](O)CC[C@]4(C)[C@H]3C[C@H](O)[C@]12C [Deoxycholic acid]
remaining activity at 1.25 µM ([1]; Well no.=6153): 107% | remaining activity at 1.25 µM ([1]; Well no.=8537): 102% | remaining activity at 3.75 µM ([2]; Well no.=6153): 112% | remaining activity at 3.75 µM ([2]; Well no.=8537): 103%

Nc1ccn([C@H]2C[C@H](O)[C@@H](COP(=O)(O)OP(=O)(O)OP(=O)(O)O)O2)c(=O)n1 [Deoxycytidine triphosphate]
remaining activity at 1.25 µM ([1]; Well no.=7355): 99.9% | remaining activity at 1.25 µM ([1]; Well no.=7870): 101% | remaining activity at 3.75 µM ([2]; Well no.=7355): 100% | remaining activity at 3.75 µM ([2]; Well no.=7870): 102%

CC(C)=CCCC1=CC(=O)c2c(O)ccc(O)c2C1=O [Deoxyshikonin]
remaining activity at 1.25 µM ([1]; Well no.=3164): 86.1% | remaining activity at 3.75 µM ([2]; Well no.=3164): 85.7%

CN(N=O)c1cc(O)ccc1O [Dephostatin]
remaining activity at 1.25 µM ([1]; Well no.=392): 97.4% | remaining activity at 3.75 µM ([2]; Well no.=392): 97.3%

Cc1cc(N)c2ccccc2[n+]1CCCCCCCCCC[n+]1c(C)cc(N)c2ccccc21 [Dequalinium dichloride]
remaining activity at 1.25 µM ([1]; Well no.=449): 101% | remaining activity at 3.75 µM ([2]; Well no.=449): 96.8%

COc1ccc(-c2cc(C(F)F)nn2-c2ccc(S(N)(=O)=O)cc2)cc1F [Deracoxib]
remaining activity at 1.25 µM ([1]; Well no.=7408): 106% | remaining activity at 3.75 µM ([2]; Well no.=7408): 102%

CNCCCN1c2ccccc2CCc2ccccc21 [Desipramine hydrochloride]
remaining activity at 1.25 µM ([1]; Well no.=545): 99.2% | remaining activity at 3.75 µM ([2]; Well no.=545): 101%

N=C(N)NCCC[C@@H](NC(=O)[C@@H]1CCCN1C(=O)[C@@H]1CSSCCC(=O)N[C@@H](Cc2ccc(O)cc2)C(=O)N[C@@H](Cc2ccccc2)C(=O)N[C@@H](CCC(N)=O)C(=O)N[C@@H](CC(N)=O)C(=O)N1)C(=O)NCC(N)=O [Desmopressin (Acetate)]
remaining activity at 1.25 µM ([1]; Well no.=8153): 103% | remaining activity at 3.75 µM ([2]; Well no.=8153): 96.9%

CC(C)=CCC[C@@H](C)[C@H]1CC[C@H]2[C@@H]3CC=C4C[C@@H](O)CC[C@]4(C)[C@H]3CC[C@]12C [Desmosterol]
remaining activity at 1.25 µM ([1]; Well no.=5972): 101% | remaining activity at 3.75 µM ([2]; Well no.=5972): 99%
